In paper PMC3530532, “Corticosteroid-Binding Globulin: Structure-Function Implications from Species Differences” (PLoS ONE, 2012):
Where a chain is given by its changes, count along the chain named. Numbers in names are those of the source. Each block holds one molecule with its values, some of them ahead of it.

Key:
Rat CBG-WT = target: T1, Rat CBG-WT (Rattus norvegicus, UniProt P31211); assay: Isothermal titration calorimetry, steroid titrated to rat CBG-WT; format: binding; details: ITC, 25°C
T1 construct: residues 5 to 374 of rat CBG (P31211); GST (N, cleaved yes); made in house; host or cells: E. coli BL21 Star (DE3)
T1 sequence (P31211 27-396): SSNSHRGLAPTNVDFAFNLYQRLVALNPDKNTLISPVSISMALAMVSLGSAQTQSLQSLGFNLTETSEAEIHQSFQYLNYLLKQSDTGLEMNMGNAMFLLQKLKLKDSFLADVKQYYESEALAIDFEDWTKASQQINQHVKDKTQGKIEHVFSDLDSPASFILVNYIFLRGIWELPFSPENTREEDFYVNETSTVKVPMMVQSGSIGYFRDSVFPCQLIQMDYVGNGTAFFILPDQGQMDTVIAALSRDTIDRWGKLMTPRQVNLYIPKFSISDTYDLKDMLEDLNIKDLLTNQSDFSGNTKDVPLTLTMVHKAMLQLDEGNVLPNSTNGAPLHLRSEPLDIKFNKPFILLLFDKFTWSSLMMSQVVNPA
Experimental: The coding sequences of residues 11 to 383 of human CBG (Swiss-Prot entry P08185) and residues 5 to 374 of rat CBG (P31211) were cloned into a pGEX-2T vector (GE Healthcare, Uppsala), yielding N-terminal glutathione-S-transferase (GST) fusion proteins. Mutations were introduced using a two-stage PCR procedure based on the QuikChange (Stratagene, Santa Clara) site-directed mutagenesis protocol. All experiments with human CBG were conducted with a mutant in which surface residue Lys126 was replaced by alanine in order to facilitate crystallization. Wild-type rat CBG (rat CBG-WT) and rat CBG mutants CBG-RCL1, CBG-RCL2 and CBG-RCL3 were produced to probe the function of the RCL residues in rat CBG. All gene constructs were confirmed by DNA sequencing prior to protein production.
The GST-tagged human and rat CBG variants were produced in E. coli BL21 Star™ (DE3) cells (Invitrogen, Carlsbad) using the ZYM-5052 auto-inducing medium. For each variant, 10 L of ZYM-5052 medium containing 100 µg/mL ampicillin were inoculated with an overnight culture of a single clone. The flasks were incubated at 37°C until the optical density at 600 nm reached 0.3. The temperature was then lowered to 20°C, and the cells were allowed to grow for an additional 20 h. The pellet was resuspended in PBS buffer (pH 7.4) containing 5 mM EDTA after cell harvesting (4 mL of buffer per gram of pellet).
The protein samples were dialyzed against ITC buffer (20 mM potassium phosphate, 50 mM NaCl, pH 7.4) and titrated with steroids in a VP-ITC microcalorimeter (Microcal, Piscataway). All solutions were filtered (0.2 µm filter pore size) and degassed for 30 min prior to the titration experiments. The sample cell was filled with protein solution containing 15 µM rat CBG or 20 µM human CBG and titrated with steroid solutions containing 150 µM and 200 µM ligand, respectively. The titrations consisted of an initial injection of 2 µL followed by 25 consecutive injections of 10 µL ligand solution at 25°C. A spacing of 240 sec between the injections was used to allow a return to the baseline. Data points from the initial injection, which are generally affected by diffusion during the initial equilibration period after experiment setup, were discarded prior to data analysis. […] The binding curve was generated by plotting the heats of injections against the ratio of ligand to protein in the cell. Integrated heat data were analyzed using nonlinear regression fit with a one-site-binding model in the Origin-7™ software provided with the VP-ITC. Changes in the free energy and entropy can be calculated using the equation: ΔG° = −RTlnK = ΔH°−TΔS°. In this equation ΔG° is the change in Gibbs free energy, R the universal gas constant, T the temperature, and K the association constant. The change in enthalpy is denoted as ΔH°, and ΔS° is the change in entropy under standard conditions. The data shown in Table 2 were obtained from single titrations of each complex.

[1] = Thermal denaturation monitored by CD spectroscopy; format: physicochemical; details: for thermal unfolding temperature / thermal stability: CD at 222 or 220 nm, 1°C/min, 10 mM potassium phosphate pH 7.4; for change of thermal stability upon RCL cleavage: elastase-cleaved vs uncleaved, CD-monitored
Experimental: Heat-induced unfolding transitions were recorded at protein concentrations between 0.5 and 0.7 µM in 10 mM potassium phosphate (pH 7.4). The samples were heated at a rate of 1°C/min in a 1 cm cell and the ellipticity was monitored at 222 or 220 nm. The sensitivity was set to 50 mdeg with a bandwidth of 1 nm and 8 sec response time.

TΔS° (Rat CBG-WT; rat CBG-WT): -14.6 kcal/mol | ΔG° (Rat CBG-WT; rat CBG-WT): -10.2 kcal/mol | ΔH° (Rat CBG-WT; rat CBG-WT): -24.76 kcal/mol | Kd (Rat CBG-WT; single titration, uncleaved rat CBG-WT): 37 ± 2 nM
Molecule: C[C@]12C[C@H](O)[C@H]3[C@@H](CCC4=CC(=O)CC[C@@]43C)[C@@H]1CC[C@@H]2C(=O)CO [Corticosterone]

Molecule: cleaved human alpha-1-antitrypsin: human alpha-1-antitrypsin after cleavage of the RCL
thermal unfolding temperature / thermal stability [1]: 90 °C

Molecule: uncleaved human alpha-1-antitrypsin: human alpha-1-antitrypsin, archetypical member of the SERPIN family, used to validate the setup
thermal unfolding temperature / thermal stability [1]: about 60 °C

B1: CBG-RCL2: rat CBG variant CBG-RCL1 plus mutations P329T and N333T (protein, UniProt P31211 23-396, looked up, variant A335V P336T P329T N333T)
Corticosteroid-binding …: STNESSNSHRGLAPTNVDFAFNLYQRLVALNPDKNTLISPVSISMALAMVSLGSAQTQSLQSLGFNLTETSEAEIHQSFQYLNYLLKQSDTGLEMNMGNAMFLLQKLKLKDSFLADVKQYYESEALAIDFEDWTKASQQINQHVKDKTQGKIEHVFSDLDSPASFILVNYIFLRGIWELPFSPENTREEDFYVNETSTVKVPMMVQSGSIGYFRDSVFPCQLIQMDYVGNGTAFFILPDQGQMDTVIAALSRDTIDRWGKLMTPRQVNLYIPKFSISDTYDLKDMLEDLNIKDLLTNQSDFSGNTKDVPLTLTMVHKAMLQLDEGNVLTNSTTGVTLHLRSEPLDIKFNKPFILLLFDKFTWSSLMMSQVVNPA
change of thermal stability upon RCL cleavage [1]: neither of these humanized rat CBG variants displayed an increased thermal stability

B2: CBG-RCL3: rat CBG variant CBG-RCL2 plus R174K, D323N, G325E and N326G (protein, UniProt P31211 23-396, looked up, variant A335V P336T P329T N333T R174K D323N G325E N326G)
Corticosteroid-binding …: B1 Corticosteroid-binding … with R174K, D323N, G325E, N326G
change of thermal stability upon RCL cleavage [1]: neither of these humanized rat CBG variants displayed an increased thermal stability
